# Data as given in article PMC8217170, “Phase Ib dose-escalation study of the hypoxia-modifier Myo-inositol trispyrophosphate in patients with hepatopancreatobiliary tumors” (Nature Communications, 2021).
# Where “and” joins values, the source holds several entries; their conditions need not be identical. Equal entries are not always repeated.
# Assays:
# [1] = system: target lesions of PDAC, CRLM, CCA and HCC; assay: Morphological radiological response, MRI, RECIST 1.1; type: in vivo, human; parameters: key to RECIST1.1 response after ITPP / RECIST1.1 response after chemotherapy / RespITPP_Recist / RespChemo_Recist: CR = complete response; PR = partial response; SD = stable disease; PD = progressive disease; Lesion1_pre_DM / Lesion1_post_DM / Lesion1_chemo_DM / Lesion2_pre_DM / Lesion2_post_DM / Lesion2_chemo_DM / Lesion3_pre_DM / Lesion3_post_DM / Lesion3_chemo_DM / Lesion4_pre_DM / Lesion4_post_DM / Lesion4_chemo_DM / Lesion5_pre_DM / Lesion5_post_DM / Lesion5_chemo_DM: unit not given here; settings: for RECIST1.1 response after chemotherapy: chemotherapy subsequent to ITPP; for RespITPP_Recist / RespChemo_Recist: RECIST
# Method: Radiological assessment, consisting of abdominal MRI and FDG-PET-CT, was performed before ITPP administration and after the 3-week treatment course. Where possible, radiological re-evaluation was performed after 3–6 cycles of chemotherapy. Radiological responses were evaluated according to the RECIST 1.1 criteria[56] for MRI and EORTC criteria[57] for FDG-PET-CT imaging.
# Then first calculate the sum of diameters (DM) and SUV-activities of radiological target lesions before ITPP (sum_pre), after ITPP (sum_post) and after subsequent chemotherapy (sum_chemo) for assessment of morphological RECIST1.1 (diameter) and metabolical EORTC (SUV activiy) responses.
# Patient 1 (dropout after only 2 infusions and subsequent death due to rapid oncological progression) is excluded for radiological assessment due to no follow up imaging available.
# In a second step, we calculate percent changes (PC) of diameter and SUV activity between before ITPP, after ITPP and after chemotherapy.
# ANG1 = assay: Serum angiogenesis marker, multiplex bead-based immunoassay (LEGENDplex); type: in vivo, human; parameters: ANG1: unit not given here; settings: for ANG1: serum, duplicate wells
# [2] = system: VEGFA, ANG1/2, EGF, PECAM1/CD31; assay: Serum angiogenic markers overall, before vs after ITPP; type: in vivo, human
# Method: Serum angiogenesis markers were quantified by multiplex bead-based immunoassays following provided instructions (LEGENDplex™, Biolegend, San Diego, CA/USA). For biochemical markers, the percentage change comparing before (day 1 0 h) with after (last day 9 h) ITPP treatment was calculated.
# EGF = assay: Serum angiogenesis marker, multiplex bead-based immunoassay (LEGENDplex); type: in vivo, human; parameters: EGF: unit not given here; settings: for EGF: serum, duplicate wells
# hepatocellular carcinoma = system: hepatocellular carcinoma; parameters: method as in ref 10 (supplementary references); settings: syngeneic, orthotopic rat model of hepatocellular carcinoma; ref 10 (supplementary references); cited from earlier work
# [3] = after ITPP monotherapy, 27 patients assessed
# [4] = after chemotherapy subsequent to ITPP, 20 patients
# [5] = following ITPP treatment, 27 patients
# [6] = Patient 25, Cohort 8, PDAC, Day 3 post
# [7] = Patient 25, Cohort 8, PDAC, Day 9 post
# [8] = Patient 26, Cohort 8, PDAC, Day 3 post
# [9] = Patient 26, Cohort 8, PDAC, Day 9 post
# [10] = Patient 27, Cohort 8, CCC, Day 3 post
# [11] = Patient 27, Cohort 8, CCC, Day 9 post
# [12] = Patient 28, Cohort 8, CRLM, Day 3 post
# [13] = Patient 28, Cohort 8, CRLM, Day 9 post
compound,measurement,setting,value
"O=P1(O)OC2C3OP(=O)(O)OP(=O)(O)OC3C3OP(=O)(O)OP(=O)(O)OC3C2OP(=O)(O)O1 (stereo not shown) [ITPP, Myo-inositol trispyrophosphate]","Median change in target lesion size, RECIST","[1]; CCA, after ITPP",0.88%
same,"Median change in target lesion size, RECIST","[1]; CCA, after chemotherapy",−18.18%
same,"Median change in target lesion size, RECIST","[1]; CRLM, after ITPP",6.67%
same,"Median change in target lesion size, RECIST","[1]; CRLM, after chemotherapy",−3.12%
same,"Median change in target lesion size, RECIST","[1]; HCC, after ITPP",0.81%
same,"Median change in target lesion size, RECIST","[1]; HCC, after chemotherapy",−30.46%
same,Share of patients with SD (morphological disease stabilization),[1]; ITPP monotherapy,52%
same,"Median change in target lesion size, RECIST","[1]; PDAC, after ITPP",12.16%
same,"Median change in target lesion size, RECIST","[1]; PDAC, after chemotherapy",0%
same,"Patients with progression (PD), RECIST1.1",[1]; [3],11
same,"Patients with stable disease (SD), RECIST1.1",[1]; [3],14
same,"Patients with PD, RECIST",[1]; [4],6
same,"Patients with SD, RECIST",[1]; [4],12
same,"Patients with partial response (PR), RECIST",[1]; [4],2
same,Share of patients with PR,[1]; after subsequent chemotherapy,10%
same,Share of patients with SD,[1]; after subsequent chemotherapy,60%
same,RECIST1.1 response after ITPP,"[1]; individual patients, cohort 1 (1866 mg/m2)",PD and SD
same,RECIST1.1 response after chemotherapy,"[1]; individual patients, cohort 1, 1866 mg/m2",SD
same,RECIST1.1 response after ITPP,"[1]; individual patients, cohort 2 (3732 mg/m2)",SD and PD
same,RECIST1.1 response after chemotherapy,"[1]; individual patients, cohort 2, 3732 mg/m2",SD
same,RECIST1.1 response after ITPP,"[1]; individual patients, cohort 3 (5600 mg/m2)",PD and SD
same,RECIST1.1 response after chemotherapy,"[1]; individual patients, cohort 3, 5600 mg/m2",PD and SD
same,RECIST1.1 response after ITPP,"[1]; individual patients, cohort 4 (7000 mg/m2)",PD and SD
same,RECIST1.1 response after chemotherapy,"[1]; individual patients, cohort 4, 7000 mg/m2",PR
same,RECIST1.1 response after ITPP,"[1]; individual patients, cohort 5 (8750 mg/m2)",SD and PD
same,RECIST1.1 response after chemotherapy,"[1]; individual patients, cohort 5, 8750 mg/m2",PD
same,RECIST1.1 response after ITPP,"[1]; individual patients, cohort 6 (10500 mg/m2)",PD and SD
same,RECIST1.1 response after chemotherapy,"[1]; individual patients, cohort 6, 10500 mg/m2",PD and PR and SD
same,RECIST1.1 response after ITPP,"[1]; individual patients, cohort 7 (12390 mg/m2)",PD and SD
same,RECIST1.1 response after chemotherapy,"[1]; individual patients, cohort 7, 12390 mg/m2",SD
same,RECIST1.1 response after ITPP,"[1]; individual patients, cohort 8 (14500 mg/m2)",PD and SD
same,RECIST1.1 response after chemotherapy,"[1]; individual patients, cohort 8, 14500 mg/m2",PD and SD
same,Lesion1_chemo_DM,"[1]; individual patients, lesion 1, after subsequent chemotherapy",131 and 16 and 90 and 54 and 20 and 33 and 23 and 19 and 28 and 67 and 69 and 42 and 31.4 and 10 and 36
same,Lesion1_post_DM,"[1]; individual patients, lesion 1, post ITPP",113 and 27 and 110 and 305 and 107 and 74 and 26 and 50 and 49 and 25 and 20 and 30 and 70 and 58 and 81 and 43 and 44.6 and 33 and 17 and 12 and 42 and 164
same,Lesion1_pre_DM,"[1]; individual patients, lesion 1, pre ITPP (baseline)",114 and 27 and 111 and 293 and 106 and 73 and 22 and 26 and 48 and 43 and 49 and 17 and 20 and 21 and 24 and 71 and 50 and 82 and 59 and 43.7 and 32 and 13 and 10 and 38 and 163
same,Lesion2_chemo_DM,"[1]; individual patients, lesion 2, after subsequent chemotherapy",13 and 23 and 41 and 24 and 25 and 32 and 16 and 12 and 62 and 14 and 47 and 28.9 and 10 and 30 and 40
same,Lesion2_post_DM,"[1]; individual patients, lesion 2, post ITPP",18 and 26 and 56 and 15 and 17 and 58 and 21 and 25 and 12 and 28 and 14 and 49 and 42 and 39.6 and 16 and 31 and 50 and 13
same,Lesion2_pre_DM,"[1]; individual patients, lesion 2, pre ITPP (baseline)",17 and 57 and 83 and 13 and 15 and 53 and 26 and 10 and 104 and 24 and 14 and 41 and 25 and 29.7 and 16 and 46
same,Lesion3_chemo_DM,"[1]; individual patients, lesion 3, after subsequent chemotherapy",39 and 16 and 10 and 9 and 24 and 7 and 32.6 and 8 and 28
same,Lesion3_post_DM,"[1]; individual patients, lesion 3, post ITPP",32 and 23 and 21 and 10 and 26 and 16 and 45.1 and 30 and 14
same,Lesion3_pre_DM,"[1]; individual patients, lesion 3, pre ITPP (baseline)",30 and 18 and 20 and 10 and 13 and 66 and 26.6 and 31 and 12
same,Lesion4_chemo_DM,"[1]; individual patients, lesion 4, after subsequent chemotherapy",21 and 7 and 10 and 12 and 34
same,Lesion4_post_DM,"[1]; individual patients, lesion 4, post ITPP",17 and 23 and 10 and 15 and 44
same,Lesion4_pre_DM,"[1]; individual patients, lesion 4, pre ITPP (baseline)",21 and 20 and 10 and 22 and 14 and 38
same,Lesion5_chemo_DM,"[1]; individual patients, lesion 5, after subsequent chemotherapy",10 and 18 and 9 and 11
same,Lesion5_post_DM,"[1]; individual patients, lesion 5, post ITPP",16 and 18 and 12
same,Lesion5_pre_DM,"[1]; individual patients, lesion 5, pre ITPP (baseline)",21 and 15 and 13 and 11 and 14
same,RespITPP_Recist,"[1]; individual patients, morphological response after ITPP monotherapy",PD and SD
same,RespChemo_Recist,"[1]; individual patients, morphological response after subsequent chemotherapy following ITPP",PD and SD and PR
same,NewLesion_ITPP,"[1]; individual patients, new lesion after ITPP monotherapy (Yes/No)",Yes and No
same,NewLesion_Chemo,"[1]; individual patients, new lesion after subsequent chemotherapy following ITPP (Yes/No)",Yes and No
same,RespITPP_Recist,"[1]; response after ITPP, per individual patient, cohort c1, tumor c2",PD and SD
same,RespChemo_Recist,"[1]; response after chemotherapy following ITPP, per individual patient, cohort c1, tumor c2",PD and SD and PR
same,Share of patients with reduced ANG1,ANG1; [5],51.9%
same,ANG1,ANG1; [6],692.38
same,ANG1,ANG1; [7],719.05 and 765.98
same,ANG1,ANG1; [8],143.21 and 130.63
same,ANG1,ANG1; [9],207.7 and 218.53
same,ANG1,ANG1; [10],904.42 and 799.6
same,ANG1,ANG1; [11],835.71 and 800.95
same,ANG1,ANG1; [12],981.48 and 747.77
same,ANG1,ANG1; [13],618.86 and 532.8
same,Share of patients with decreases in angiogenic markers,[2],~60%
same,Share of patients with reduced EGF,EGF; [5],85.2%
same,EGF,EGF; [6],16.25
same,EGF,EGF; [7],11.62 and 15.2
same,EGF,EGF; [8],14.41 and 12.95
same,EGF,EGF; [9],9.76 and 9.88
same,EGF,EGF; [10],5.57 and 4.9
same,EGF,EGF; [11],9.82 and 10.17
same,EGF,EGF; [12],2.39 and 3.39
same,EGF,EGF; [13],3.09 and 2.24
same,Rats alive after 100 days,hepatocellular carcinoma,nine out of ten
